Results on four compounds are retold here after the NIST ThermoML archive (doi:10.1016/j.fluid.2012.03.021).

Numbers after ± are expanded uncertainties.

The conditions of this data set: Liquid; for Critical pressure: Direct measurement; for Critical temperature: Pulse Heating.

With `CC(=O)c1ccc[cH-]1.[Fe+2].c1cc[cH-]c1` [acetylferrocene], the Critical pressure turned out to be 3280 ± 260 kPa and the Critical temperature is 847 ± 26 K.
Taken in the same sequence, the figures for `O=C(c1ccccc1)c1ccc[cH-]1.[Fe+2].c1cc[cH-]c1` [benzoylferrocene] were 1590 ± 120 kPa and 886 ± 26 K.
Taken in the same sequence, the figures for `CCCC[c-]1cccc1.[Fe+2].c1cc[cH-]c1` [butylferrocene] were 2180 ± 180 kPa and 784 ± 24 K.
In the case of `[CH]1C=CC=C1.[CH]1C=CC=C1.[Fe]` [ferrocene], the Critical pressure was determined as 3610 ± 200 kPa and the Critical temperature came to 785 ± 16 K.
